Data taken from paper PMC11325555, “Interaction of Bisphenol A and Its Analogs with Estrogen and Androgen Receptor from Atlantic Cod (Gadus morhua)” (Environmental Science & Technology, 2024).

Columns and labels:
[1] = target: T1, Atlantic cod androgen receptor alpha (gmAra) LBD (Gadus morhua, UniProt D5FIC7); assay: Luciferase reporter gene assay, gmAra agonism (androgenic activity) in transfected COS-7 cells; conditions: COS-7, monkey, 24 h, read-out: gmAra Emax
T1 sequence (D5FIC7 409-718): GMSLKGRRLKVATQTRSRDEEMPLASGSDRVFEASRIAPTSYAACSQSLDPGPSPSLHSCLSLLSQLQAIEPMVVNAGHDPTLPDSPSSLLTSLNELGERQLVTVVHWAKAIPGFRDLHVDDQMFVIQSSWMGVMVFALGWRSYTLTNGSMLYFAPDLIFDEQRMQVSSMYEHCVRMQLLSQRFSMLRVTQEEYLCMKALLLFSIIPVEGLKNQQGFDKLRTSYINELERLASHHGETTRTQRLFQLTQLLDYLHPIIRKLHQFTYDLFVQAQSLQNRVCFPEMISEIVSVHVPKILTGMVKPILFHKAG
Protocol: Ligand activation of gmEra and gmAra was studied with a luciferase reporter gene assay in COS-7 cells transiently transfected with the pCMX-GAL4(DBD)-gmEra(LBD) or pCMX-GAL4(DBD)-gmAra(LBD) plasmid by using the TransIT-LT1 reagent (TransIT-LT1 Transfection Reagent, Mirus). Cells were seeded into 96-well plates (5000 cells/well) and incubated for 24 h before cotransfection with the plasmid mixture (100 ng/well). The plasmid mixture contained GAL4-UAS luciferase reporter plasmid (tk-(MH100)x4 luc), the pCMX-GAL4(DBD)-gmEra(LBD) or pCMX-GAL4(DBD)-gmAra(LBD) receptor plasmids (2:1 reporter:receptor plasmid mass ratio), and a plasmid constitutively producing the β-galactosidase enzyme used for normalization of transfection efficiency (pCMV- β-Gal). […] The maximum DMSO/methanol concentrations in the exposure wells were 0.5% (v/v) in DMEM medium without phenol red (Sigma-Aldrich). After exposure, cells were lysed, and luciferase and beta-galactosidase activities were measured as luminescence and absorbance (420 nm) after the addition of luciferin and ONPG substrates, respectively, using an Enspire Multimode plate reader (PerkinElmer, Waltham, Massachusetts, USA).
Figure 3 Androgenic activity of bisphenols. COS-7 cells were transiently transfected with gmAra LBD and exposed individually to 12 bisphenol analogs at increasing concentrations. […] The dose–response curves were created using nonlinear regression and the four-parameter logistic fit in Graphpad Prism v.9. For comparison, the dose–response curve of BPA (black line) is indicated together with each individual BP tested (red line). *p < 0.05 versus solvent control by one-way ANOVA and Dunnett’s multiple comparison post hoc test.

[2] = tested on: Er-mediated synthesis of Vtg in Atlantic cod PCLS; assay: Vitellogenin ELISA in media of exposed precision-cut liver slices (PCLS); assay type: cell-based, Atlantic cod (Gadus morhua); conditions: 96 h; for Vtg synthesis in PCLS, result in words: 1, 10, 100 μM bisphenols or 0.1, 1, 10 nM EE2, Vtg in media by ELISA
Protocol: PCLS culturing and exposure assays were performed essentially as described previously,[42],[56] with the modifications described below. Juvenile Atlantic cod were killed by a blow to the head, and the liver was dissected out and placed in a Petri dish containing ice-cold PCLS buffer (122 mM NaCl, 4.8 mM KCl, 1.2 mM MgSO4, 11 mM Na2HPO4, 3.7 mM NaHCO3, […]). The liver was then cut into small tissue blocks (approximately 3 cm long, 2 cm wide, and 1–3 cm high) and kept in ice-cold complete culture medium (L-15 medium supplemented with 10% FBS and 1× antibiotic-antimycotic solution). For slicing, the tissue block was fixed on the specimen plate of a Leica vibrating blade microtome VT1200 (Leica, Wetzlar, Germany) using Loctite Super Glue (Clas Ohlson, Bergen, Norway), and 250 μm thick tissue slices were cut (under ice-cold PCLS buffer) and kept in a Petri dish with ice-cold complete culture medium. Using a sterile razor blade, the tissue slices (2 × 3 cm) were then divided into smaller pieces (approximately 4 × 4 mm) and distributed into a 12-well cell culture plate (Sarstedt, Nümbrecht, Germany), each well containing 6 slices and 2 mL of complete culture medium. The PCLS were preincubated at 10 °C for 2 h before exposure. After preincubation, 1 mL of the medium was removed from each well and replaced by 1 mL of fresh complete culture medium containing 2x the final desired concentration and incubated at 10 °C for 96 h with shaking at 50 rpm. […] At the end of the exposure, slices were collected with tweezers and rinsed briefly in cold PBS. Excess PBS was removed by carefully touching a dry surface of the culture plate with the slice 4 times before measuring the weight in a preweighed cryotube. The slices were then snap-frozen in liquid N2 and stored at −80 °C. The media was also sampled and stored at −80 °C for viability (LDH) assay and vitellogenin ELISA.
Vitellogenin (Vtg) in media collected from exposed PCLS was quantified using the Atlantic Cod Vitellogenin ELISA kit (Biosense Laboratories AS, Bergen, Norway) according to manufacturer’s instructions. Vtg was quantified in 100 μL of undiluted media and normalized to the weight of the liver tissue. Statistical analysis of ELISA data was performed with GraphPad Prism Software version 9 (GraphPad Prism, La Jolla, CA, USA) by using one-way ANOVA followed by Dunnett’s test (for normally distributed data) or Friedman test followed by Dunn’s test (for non-normally distributed data), as described previously for PCLS experiments (Yadetie et al.[42]).
Figure 5 Relative vitellogenin production in Atlantic cod precision-cut liver slices (PCLS) exposed to bisphenols and EE2. PCLS were exposed to 1, 10, and 100 μM bisphenols or 0.1, 1, and 10 nM EE2, for 96 h. EE2 was included as positive control for activation of the gmEra signaling pathway. Levels of induced Vtg in the PCLS media were measured using ELISA (Cod Vitellogenin ELISA kit, Biosense Laboratories AS). The data represents mean ± SEM of fold change (compared to solvent control) of Vtg levels from 4 to 10 fish. n = 8–10 for all bisphenols except for BADGE (n = 4). Asterisks denote significant changes (p < 0.05) compared to solvent control.

Compound	maximal fold induction [1]	Vtg synthesis in PCLS, result in words [2]	concentration at which maximum Vtg levels were observed ([2]; 1, 10, 100 μM tested) [µM]
CC(C)(c1ccc(OCC2CO2)cc1)c1ccc(OCC2CO2)cc1 (centres unmarked) [BADGE]	1	small, but significant, decrease in the Vtg synthesis	
Oc1ccc(C2(c3ccc(O)cc3)c3ccccc3-c3ccccc32)cc1 [BPFL]	1.3	only moderate and not statistically significant	10
